The values that follow come from patent US20230303635A1, “DIAGNOSTIC METHODS AND COMPOSITIONS” (THE REGENTS OF THE UNIVERSITY OF CALIFORNIA, priority 2020, published 2023).

Read-outs that look alike come from different tables or passages of the source.

The term Kd denotes the free concentration of one partner at which half of the binding sites on the other are occupied at equilibrium, for simple one-to-one binding.

The target of assay [1] is receptor binding domain (RBD) of the SARS-CoV-2 spike protein (Severe acute respiratory syndrome coronavirus 2, UniProt P0DTC2). To be noted: cited from earlier work.
A short description of assay [2]: Fluorescence spectroscopy of gpW FRET constructs upon pH titration.
Description: Accordingly, the fluorescence integration was employed on this variant. Specifically, an extra cysteine was added at the N-terminal (N-ter), e.g., position 1, and the second cysteine was introduced near the C-terminal (C-ter) by replacing the methionine at position 56. These mutations allow us to chemically label the L7H with a FRET-pair to monitor the end-to-end distance of L7H (L7H-FRET). Another FRET-construct was also designed to measure the distance change between the beta-hairpin and the helix-1. […] In this regard, two cysteines were placed on the M18H-F35H variant by adding one cysteine at the N-ter (position 1) and replacing an aspartate (position 29) with cysteine. […] In both constructs, Alexa-488 maleimide and Alexa-594 maleimide are used as the FRET pair as they have many advantageous features. […]
Proteins samples were prepared at different pH by adding the labeled proteins 20 mM citrate buffer for experiments in the 3-6 pH range, phosphate buffer pH 7, and Tris-HCl buffer for the 8-9 pH range. […] Fluorescence emission spectra were recorded between 630 nm and 740 nm by exciting the ATTO 655 at 620 nm or between 490 nm and 720 nm by exciting the Alexa 488 at 480 nm. The pH titration on L7H-helix was triplicated, and L7H-Cter was replicated five times to calculate the standard deviation due to the concentration dependence of the PET fluorescence technique.

Regarding “GSGSGSTIEEQAKTFLDKANCEAEDLAYQSSLAS [ACE-2 α-helix]”, the Kd was 1000 nM in assay [1] (read-out: binding affinity (KD) to SARS-CoV-2 S protein) and 50 nM in assay [1] (read-out: binding affinity (Kd) to SARS-CoV-2 spike protein RBD).

B1: L7H: single histidine graft L7H on downhill folding protein gpW (protein, UniProt P68660 1-68, looked up, variant L7H)
Head completion protein: MTRQEEHAAARAALHDLMTGKRVATVQKDGRRVEFTATSVSDLKKYIAELEVQTGMTQRRRGPAGFYV
With B1, in assay [2], the “distance change as a function of pH” value is “less than 1 nm”.
